# Measurements: patent US20130059876A1, “LIQUID NASAL SPRAY CONTAINING LOW-DOSE NALTREXONE” (L Molteni & C Dei Fratelli Alitti Societa Di Esercizio S.p.A, priority 2010, published 2013)
# Values joined by “and” are separate entries in the source; they are usually repeats but may differ in a detail not shown here. Identical values can stand only once.
# Key:
# [1] = test system: Oncologic patients receiving therapy with morphine orally; experiment: Clinical study: naltrexone in oncologic patients receiving therapy with morphine orally; type: in vivo; conditions: individual patient, ½ hour before oral morphine (average 40 mg +/- 10 mg)
# [2] = test system: Spine patients undergoing therapy with morphine by the spinal route; experiment: Clinical study: naltrexone in spine patients undergoing therapy with morphine by the spinal route; type: in vivo; conditions: individual patient, ½ hour before epidural load, spinal morphine (average 4.8 mg +/- 0.4 mg)
# [3] = test system: patients; conditions: patients (total number 80) before treatment with Naltrexone
# [4] = naltrexone 0.125 mcg every 12 hours
# [5] = naltrexone 2.5 mcg every 12 hours
# [6] = naltrexone 5 mcg every 12 hours
# [7] = naltrexone 1 mcg every 12 hours
smiles,measurement,setting,value
"O=C1CC[C@@]2(O)[C@H]3Cc4ccc(O)c5c4[C@@]2(CCN3CC2CC2)[C@H]1O5 [Naltrexone, naltrexone]",Analgesia (%): analgesic efficacy after administration of naltrexone,[1]; naltrexone 1 mg every 12 hours,100% (8×) and 90% (2×) and 65% (2×) and 60% (2×) and 70% (3×) and 65%** (3×) and 55% and 75%** and 70%** and 85% (2×) and 45%** and 45%
same,Benefit (%): percentage reduction of adverse effects,[1]; naltrexone 1 mg every 12 hours,90% (3×) and 65% (8×) and 40% (2×) and 70% (4×) and 100% (3×) and 75% and 95% and 0% and 55% and 50% and 80% (2×)
same,Analgesia (%): analgesic efficacy after administration of naltrexone,[1]; [4],45% (2×) and 55%** and 65%** and 60%
same,Benefit (%): percentage reduction of adverse effects,[1]; [4],65% (3×) and 40% and 100%
same,Analgesia (%): analgesic efficacy after administration of naltrexone,[1]; naltrexone 0.125 mcg/day,60%
same,Benefit (%): percentage reduction of adverse effects,[1]; naltrexone 0.125 mcg/day,100%
same,Analgesia (%): analgesic efficacy after administration of naltrexone,[1]; [5],0% and 45% (7×) and 55% (2×) and 60%** and 100% (2×) and 70% and 60% (3×) and 40%
same,Benefit (%): percentage reduction of adverse effects,[1]; [5],100% and 80% (5×) and 70% and 50% (3×) and 65% (2×) and 40% and 60% (2×) and 25% and 55% and 90%
same,Analgesia (%): analgesic efficacy after administration of naltrexone,[1]; naltrexone 2.5 mcg/day,60%
same,Benefit (%): percentage reduction of adverse effects,[1]; naltrexone 2.5 mcg/day,90%
same,Analgesia (%): analgesic efficacy after administration of naltrexone,[1]; [6],45% (2×) and 55% (5×) and 70% and 100% (3×) and 90% (3×) and 60% (3×) and 65% and 60%** (2×) and 65%** and 55%** and 70%**
same,Benefit (%): percentage reduction of adverse effects,[1]; [6],60% (4×) and 0% and 70% and 50% (3×) and 45% (4×) and 85% (2×) and 55% (2×) and 35% and 40% (2×) and 65% and 100% (2×)
same,Analgesia (%): analgesic efficacy after administration of naltrexone,[2]; naltrexone 1 mg every 12 hours,95% and 60% and 65%
same,Benefit (%): percentage reduction of adverse effects,[2]; naltrexone 1 mg every 12 hours,65% (2×) and 50%
same,Analgesia (%): analgesic efficacy after administration of naltrexone,[2]; [7],65% and 45% (2×)
same,Benefit (%): percentage reduction of adverse effects,[2]; [7],65% and 70% and 100%
same,Analgesia (%): analgesic efficacy after administration of naltrexone,[2]; [5],45% (2×) and 75% and 60% and 55% (2×) and 90% and 0% and 100% (3×) and 85%
same,Benefit (%): percentage reduction of adverse effects,[2]; [5],45% (2×) and 80% (4×) and 60% (3×) and 100% (2×) and 95%
same,Analgesia (%): analgesic efficacy after administration of naltrexone,[2]; [6],45% and 100% and 60% (3×) and 35% and 85% and 15%
same,Benefit (%): percentage reduction of adverse effects,[2]; [6],70% (2×) and 95% and 50% (3×) and 65% and 30%
CN1CC[C@]23c4c5ccc(O)c4O[C@H]2[C@@H](O)C=C[C@H]3[C@H]1C5 [morphine],Incidence of adverse effects from morphine: Asthenia,[3],43.3%
same,Incidence of adverse effects from morphine: Constipation,[3],70%
same,Incidence of adverse effects from morphine: Dizziness,[3],13.3%
same,Incidence of adverse effects from morphine: Drowsiness,[3],30%
same,Incidence of adverse effects from morphine: Headache,[3],6.7%
same,Incidence of adverse effects from morphine: Inappetence,[3],46.7%
same,Incidence of adverse effects from morphine: Nausea,[3],53.3%
same,Incidence of adverse effects from morphine: Pruritus,[3],30%
same,Incidence of adverse effects from morphine: Vomiting,[3],53.3%
